Data from patent publication US8835124B2, “Method for treating cancer with agents that bind phosphorylated CDC27” (The Nemours Foundation, priority 2011, dated 2014).

Experiments:
[1] = system: acetylated tubulin; assay: Acetylated tubulin accumulation in cell lines; type: cell-based; conditions: cells with low levels of phosphorylated Cdc27; 20 μM curcumin for 0, 4, 8 and 24 hours
Experimental: Accumulation of acetylated tubulin was assayed. […] Thus, loss of Cdc27 function or p55Cdc20 association with Cdc27 may be linked to increased tubulin acetylation in curcumin-treated cells.

[2] = system: MDCK cells; assay: LDH release cytotoxicity assay; type: cell-based; conditions: 24 hours, 0, 5, 10 and 20 μM; low phosphorylated Cdc27
Experimental: (§3) Lactate dehydrogenase (LDH) levels as a measure of cell death were determined using the Non-radioactive Cytotoxicity kit (Promega, Madison, Wis.) according to manufacturer's instructions. […] Cell debris was removed by centrifugation. Viable cell LDH was collected from cells lysed by freezing for 15 minutes at −70° C. followed by thawing at 37° C. The medium was collected and cleared from cell debris by centrifugation. The relative release of LDH was determined as the ratio of released LDH versus total LDH from viable cells.

[3] = system: DAOY medulloblastoma cells; assay: Cell cycle analysis by flow cytometry after release from G1/S block; type: cell-based, human; conditions: for G0/G1 / G2/M / S: DAOY released from G1/S block
Experimental: (§1) DNA was stained with 100 μg/ml propidium iodide (PI) in hypotonic citrate buffer with 20 μg/ml ribonuclease A. Stained nuclei were analyzed for DNA-PI fluorescence using an Accuri C6 flow cytometer (Accuri Cytometers Inc., Ann Arbor, Mich.). Resulting DNA distributions for sub G0/G1, G0/G1, S and G2/M phase of the cell cycle were analyzed with CFlow plus software (Accuri Cytometers Inc).
(§2) For analysis of cell cycle profiles after mitotic block, cells were synchronized with 2 mM thymidine for 24 hours. The block was released for 3 hours and cells were arrested in prometaphase with 100 nM nocodazole for 12 hours. For G1/S arrest, cells were synchronized for 18 hours with 2 mM thymidine, released for 9 hours, followed by a second thymidine arrest for 18 hours. The block was then released in the presence of DMSO or curcumin as indicated and the cells were processed as described above.
as §1, with “software (Accuri Cytometers. Inc).” for “software (Accuri Cytometers Inc).”
as §2, with “above. […] The data from these cell cycle studies are the mean±SEM of three independent experiments.” for “above.”
At 0, 4, 8, 12, 16 and 20 hours, cell cycle progression was analyzed by flow cytometry.

[4] = system: HT1376 cells; assay: LDH release cytotoxicity assay; type: cell-based; conditions: 24 hours, 0, 5, 10 and 20 μM; low phosphorylated Cdc27
Experimental: as §3

[5] = system: DAOY cells; assay: LDH release cytotoxicity assay; type: cell-based, human; conditions: 24 hours, 0, 5, 10 and 20 μM; high phosphorylated Cdc27
Experimental: as §3
Data represent mean±SEM of three independent experiments.

[6] = system: medulloblastoma; conditions: medulloblastoma in vivo model; cited from earlier work
[7] = system: NT2 and MDCK cells; assay: Cell cycle progression after release from thymidine/nocodazole block; type: cell-based; conditions: different concentrations of curcumin
Experimental: as §2
NT2 and MDCK cells were arrested with thymidine/nocodazole treatment. […] DNA contents were analyzed for cell cycle progression. The data shown in FIG. 7 are expressed as mean±SEM of three independent experiments.

SMILES: COc1cc(/C=C/C(=O)CC(=O)/C=C/c2ccc(O)c(OC)c2)ccc1O [Curcumin, (E,E)-1,7-bis(4-hydroxy-3-methoxyphenyl)-1,6-heptadiene-3,5-dion]
- curcumin-induced tubulin acetylation [1]: reduced
- sensitivity to curcumin-induced apoptosis (LDH release) [2]: almost unaffected
- cells that had not re-entered G0/G1 ([3]; 20 μM curcumin, 20 hours after removal of the thymidine block): 56.9%
- time after release at which cells reached G2/M ([3]; DAOY released from G1/S block in the presence of 10 μM curcumin (control 8-12 hours)): 12 to 16 h
- time after release at which cells reached G2/M ([3]; DAOY released from G1/S block in the presence of 20 μM curcumin (control 8-12 hours)): 16 to 20 h
- sub-G0/G1 signal (apoptosis) ([3]; DAOY released from G1/S block with curcumin, up to 20 hours): no sub-G0/G1 signal, was detected
- G0/G1 ([3]; 10 μM Curcumin, 0 Hr): 48.15 ± 0.32%
- G2/M ([3]; 10 μM Curcumin, 0 Hr): 32.96 ± 1.97%
- S ([3]; 10 μM Curcumin, 0 Hr): 18.89 ± 2.17%
- G0/G1 ([3]; 10 μM Curcumin, 4 Hr): 41.92 ± 5.16%
- G2/M ([3]; 10 μM Curcumin, 4 Hr): 25.88 ± 3.55%
- S ([3]; 10 μM Curcumin, 4 Hr): 32.13 ± 2.64%
- G0/G1 ([3]; 10 μM Curcumin, 8 Hr): 24.94 ± 4.83%
- G2/M ([3]; 10 μM Curcumin, 8 Hr): 35.33 ± 5.04%
- S ([3]; 10 μM Curcumin, 8 Hr): 39.71 ± 4.45%
- G0/G1 ([3]; 10 μM Curcumin, 12 Hr): 32.40 ± 8.28%
- G2/M ([3]; 10 μM Curcumin, 12 Hr): 44.92 ± 11.40%
- S ([3]; 10 μM Curcumin, 12 Hr): 22.71 ± 3.49%
- G0/G1 ([3]; 10 μM Curcumin, 16 Hr): 42.40 ± 6.35%
- G2/M ([3]; 10 μM Curcumin, 16 Hr): 34.85 ± 9.11%
- S ([3]; 10 μM Curcumin, 16 Hr): 22.75 ± 3.63%
- G0/G1 ([3]; 10 μM Curcumin, 20 Hr): 46.46 ± 2.96%
- G2/M ([3]; 10 μM Curcumin, 20 Hr): 29.88 ± 3.86%
- S ([3]; 10 μM Curcumin, 20 Hr): 23.66 ± 4.26%
- G0/G1 ([3]; 20 μM Curcumin, 0 Hr): 48.15 ± 0.32%
- G2/M ([3]; 20 μM Curcumin, 0 Hr): 32.96 ± 1.97%
- S ([3]; 20 μM Curcumin, 0 Hr): 18.89 ± 2.17%
- G0/G1 ([3]; 20 μM Curcumin, 4 Hr): 40.18 ± 5.31%
- G2/M ([3]; 20 μM Curcumin, 4 Hr): 28.33 ± 1.56%
- S ([3]; 20 μM Curcumin, 4 Hr): 31.55 ± 3.94%
- G0/G1 ([3]; 20 μM Curcumin, 8 Hr): 31.66 ± 3.64%
- G2/M ([3]; 20 μM Curcumin, 8 Hr): 31.58 ± 2.35%
- S ([3]; 20 μM Curcumin, 8 Hr): 36.76 ± 2.49%
- G0/G1 ([3]; 20 μM Curcumin, 12 Hr): 21.69 ± 2.77%
- G2/M ([3]; 20 μM Curcumin, 12 Hr): 40.44 ± 3.95%
- S ([3]; 20 μM Curcumin, 12 Hr): 37.87 ± 3.29%
- G0/G1 ([3]; 20 μM Curcumin, 16 Hr): 20.99 ± 2.17%
- G2/M ([3]; 20 μM Curcumin, 16 Hr): 48.68 ± 5.04%
- S ([3]; 20 μM Curcumin, 16 Hr): 30.34 ± 4.57%
- G0/G1 ([3]; 20 μM Curcumin, 20 Hr): 27.44 ± 4.69%
- G2/M ([3]; 20 μM Curcumin, 20 Hr): 43.06 ± 5.04%
- S ([3]; 20 μM Curcumin, 20 Hr): 29.53 ± 0.59%
- sensitivity to curcumin-induced apoptosis (LDH release) [4]: almost unaffected
- sensitivity to curcumin-induced apoptosis (LDH release) [5]: most sensitive
- medulloblastoma growth [6]: can inhibit medulloblastoma growth
- mitotic progression after release from mitotic block [7]: selectively blocks mitotic progression in different cell lines with phosphorylated APC3/Cdc27
